{"source": "ChEMBL document CHEMBL1125830", "about": "“Phosphonate-containing inhibitors of tyrosine-specific protein kinases” (J Med Chem, 1991)", "key": {"[1]": {"biological_target": "Epidermal growth factor receptor (Homo sapiens, UniProt P00533)", "sequence (P00533 whole entry)": "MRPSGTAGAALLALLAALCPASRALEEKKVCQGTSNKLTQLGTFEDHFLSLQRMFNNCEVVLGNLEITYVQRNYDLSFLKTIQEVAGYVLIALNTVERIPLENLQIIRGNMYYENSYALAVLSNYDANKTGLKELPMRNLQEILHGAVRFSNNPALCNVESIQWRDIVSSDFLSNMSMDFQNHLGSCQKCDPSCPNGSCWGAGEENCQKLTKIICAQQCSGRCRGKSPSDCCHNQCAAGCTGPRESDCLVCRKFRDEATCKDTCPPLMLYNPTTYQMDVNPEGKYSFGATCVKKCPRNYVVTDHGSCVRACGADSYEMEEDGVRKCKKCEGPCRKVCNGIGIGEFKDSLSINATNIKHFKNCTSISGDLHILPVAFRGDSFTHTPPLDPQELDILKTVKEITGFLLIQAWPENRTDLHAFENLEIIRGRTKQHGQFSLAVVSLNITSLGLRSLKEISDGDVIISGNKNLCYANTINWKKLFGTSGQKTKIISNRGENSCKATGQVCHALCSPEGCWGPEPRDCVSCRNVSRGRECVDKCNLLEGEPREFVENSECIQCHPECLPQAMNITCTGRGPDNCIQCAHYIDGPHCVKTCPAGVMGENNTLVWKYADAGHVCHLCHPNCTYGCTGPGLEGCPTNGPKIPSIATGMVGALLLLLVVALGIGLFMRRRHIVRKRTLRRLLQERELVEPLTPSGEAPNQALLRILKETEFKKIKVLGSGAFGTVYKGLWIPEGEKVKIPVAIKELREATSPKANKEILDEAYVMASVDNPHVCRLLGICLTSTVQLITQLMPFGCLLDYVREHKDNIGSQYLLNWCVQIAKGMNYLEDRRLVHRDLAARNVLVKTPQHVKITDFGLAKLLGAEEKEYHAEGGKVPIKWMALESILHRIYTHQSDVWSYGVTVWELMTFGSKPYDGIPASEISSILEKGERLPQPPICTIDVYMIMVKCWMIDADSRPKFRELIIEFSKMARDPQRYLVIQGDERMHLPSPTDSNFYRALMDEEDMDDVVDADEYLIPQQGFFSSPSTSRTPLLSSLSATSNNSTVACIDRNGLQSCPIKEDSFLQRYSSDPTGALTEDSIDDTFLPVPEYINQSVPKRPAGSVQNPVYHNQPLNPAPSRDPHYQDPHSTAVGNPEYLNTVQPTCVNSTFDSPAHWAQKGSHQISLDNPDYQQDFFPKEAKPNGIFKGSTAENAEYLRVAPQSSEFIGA", "assay": "Inhibition of Epidermal growth factor receptor autophosphorylation in A431 cell membranes"}, "Insulin receptor": {"biological_target": "Insulin receptor (Homo sapiens, UniProt P06213)", "sequence (P06213 28-758 limits assumed)": "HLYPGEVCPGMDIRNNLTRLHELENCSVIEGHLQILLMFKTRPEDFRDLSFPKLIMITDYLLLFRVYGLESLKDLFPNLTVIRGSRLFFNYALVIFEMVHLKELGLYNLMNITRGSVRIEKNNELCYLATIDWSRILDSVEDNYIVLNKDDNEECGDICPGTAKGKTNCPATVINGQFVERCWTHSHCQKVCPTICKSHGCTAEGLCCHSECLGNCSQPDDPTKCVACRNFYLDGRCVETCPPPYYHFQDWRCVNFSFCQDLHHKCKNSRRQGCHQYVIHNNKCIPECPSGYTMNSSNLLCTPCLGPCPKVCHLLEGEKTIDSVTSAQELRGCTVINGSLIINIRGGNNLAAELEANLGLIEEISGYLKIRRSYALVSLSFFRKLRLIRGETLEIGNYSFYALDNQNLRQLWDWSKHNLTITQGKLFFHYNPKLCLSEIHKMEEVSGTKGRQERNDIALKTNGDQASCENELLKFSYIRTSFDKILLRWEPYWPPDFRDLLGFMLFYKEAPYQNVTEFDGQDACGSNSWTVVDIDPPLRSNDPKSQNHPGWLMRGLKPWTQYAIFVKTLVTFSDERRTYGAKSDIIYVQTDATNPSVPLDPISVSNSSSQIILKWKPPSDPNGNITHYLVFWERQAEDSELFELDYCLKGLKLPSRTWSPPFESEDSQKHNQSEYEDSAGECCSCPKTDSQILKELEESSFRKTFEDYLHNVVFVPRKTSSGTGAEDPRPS", "sequence (P06213 763-1382 limits assumed)": "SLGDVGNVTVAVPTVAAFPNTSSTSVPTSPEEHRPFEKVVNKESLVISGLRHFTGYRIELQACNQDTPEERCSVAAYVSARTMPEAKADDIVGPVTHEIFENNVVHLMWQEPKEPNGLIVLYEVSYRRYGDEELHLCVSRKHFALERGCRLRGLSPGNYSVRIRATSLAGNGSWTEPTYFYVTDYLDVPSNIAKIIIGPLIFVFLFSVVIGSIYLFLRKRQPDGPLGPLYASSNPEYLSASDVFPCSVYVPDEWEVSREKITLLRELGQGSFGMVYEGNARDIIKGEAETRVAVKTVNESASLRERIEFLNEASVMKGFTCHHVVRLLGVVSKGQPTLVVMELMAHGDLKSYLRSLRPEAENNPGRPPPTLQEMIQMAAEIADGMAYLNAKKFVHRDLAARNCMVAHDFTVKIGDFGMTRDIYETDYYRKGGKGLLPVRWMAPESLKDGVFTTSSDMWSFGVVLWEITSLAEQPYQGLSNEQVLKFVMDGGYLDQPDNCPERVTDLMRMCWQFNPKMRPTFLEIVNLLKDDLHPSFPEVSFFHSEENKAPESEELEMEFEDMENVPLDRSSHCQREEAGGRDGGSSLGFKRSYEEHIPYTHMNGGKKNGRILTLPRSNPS", "assay": "Inhibition of insulin receptor autophosphorylation"}}, "data": [{"smiles": "O=P(O)(O)C(O)c1ccc2ccccc2c1", "note": "(configuration not stated)", "values": [{"measurement": "IC50", "setting": "[1]", "value": 250, "unit": "µM"}, {"measurement": "IC50", "setting": "Insulin receptor", "value": 200, "unit": "µM"}]}]}
